According to patent US20250042886A1, “BIS(HETERO)ARYL THIOETHER OXADIAZINES AS FUNGICIDAL COMPOUNDS” (Bayer Aktiengesellschaft, priority 2021, published 2025):

Key:
Fusarium culmorum = Fusarium culmorum in vitro cell test; type: cell-based; conditions: 120 h, 50 μMol/l of active ingredient, liquid culture, 5 days incubation, read-out: efficacy (inhibition of fungal growth)
Protocol: B-10. Fusarium culmorum In Vitro Cell Test • Solvent: DMSO • Culture medium: 1 g KH2PO4 (VWR), 1 g K2HPO4 (VWR), 0.5 g Urea (VWR), 3 g KNO3 (Prolabo), 10 g saccharose (VWR), 0.5 g MgSO4, 7H2O (Sigma), 0.07 g CaCl2, 2H2O (Prolabo), 0.2 mg MnSO4, H2O (Sigma), 0.6 mg CuSO4, 5H2O (Sigma), 7.9 mg ZnSO4, 7H2O (Sigma), 0.1 mg H3BO3 (Merck), 0.14 mg NaMoO4, 2H2O (Sigma), 2 mg thiamine (Sigma), 0.1 mg biotine (VWR), 4 mg FeSO4, 7H2O (Sigma), QSP 1 liter • Inoculum: spores suspension
Fungicides were solubilized in DMSO and the solution used to prepare the required range of concentrations. The final concentration of DMSO used in the assay was ≤1%.
A spore suspension of F. culmorum was prepared and diluted to the desired spore density.
Fungicides were evaluated for their ability to inhibit spore germination and mycelium growth in liquid culture assay. The compounds were added in the desired concentration to the culture medium with spores. After 5 days incubation, fungi-toxicity of compounds was determined by spectrometric measurement of mycelium growth. Inhibition of fungal growth was determined by comparing the absorbance values in wells containing the fungicides with the absorbance in control wells without fungicides.

Botrytis cinerea [1] = experiment: Botrytis cinerea in vitro cell test; type: cell-based; conditions: 144 h, 50 μMol/l of active ingredient, liquid culture, 6 days incubation, read-out: efficacy (inhibition of fungal growth)
In short: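 Compounds from DMSO stocks added at a range of concentrations to a defined mineral-salt/sucrose liquid medium inoculated with B. cinerea spores. After 6 days' incubation, mycelium growth was read by absorbance; inhibition of germination and growth was calculated against fungicide-free control wells.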

[2] = system: Colletotrichum lindemuthianum; experiment: Colletotrichum lindemuthianum in vitro cell test; type: cell-based; conditions: 144 h, liquid culture, 6 days incubation, read-out: efficacy (inhibition of fungal growth); for inhibition at 50 µM: 50 μMol/l of active ingredient; for inhibition at 20 ppm: 20 ppm of active ingredient
In short: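 C. lindemuthianum spores in liquid glucose–peptone–yeast extract medium were exposed to compounds dissolved in DMSO. After 6 days, mycelial growth was measured by absorbance, and inhibition was calculated against compound-free control wells.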

Alternaria alternata = Alternaria alternata in vitro cell test; type: cell-based; conditions: 120 h, 50 μMol/l of active ingredient, liquid culture, 5 days incubation, read-out: efficacy (inhibition of fungal growth)
Protocol: (§1) B-5. Alternaria alternata In Vitro Cell Test • Solvent: DMSO • Culture medium: 14.6 g anhydrous D-glucose (VWR), 7.1 g Mycological Peptone (Oxoid), 1.4 g granulated Yeast Extract (Merck), QSP 1 liter • Inoculum: spores suspension Fungicides were solubilized in DMSO and the solution used to prepare the required range of concentrations. […] A spore suspension of A. alternata was prepared and diluted to the desired spore density. Fungicides were evaluated for their ability to inhibit spore germination and mycelium growth in liquid culture assay. The compounds were added in the desired concentration to the culture medium with spores. After 5 days incubation, fungi-toxicity of compounds was determined by spectrometric measurement of mycelium growth. Inhibition of fungal growth was determined by comparing the absorbance values in wells containing the fungicides with the absorbance in control wells without fungicides.

Botrytis cinerea [3] = experiment: In vivo preventive test on Botrytis cinerea (grey mould); conditions: 500 ppm of active ingredient, sprayed on young gherkin or cabbage plants 24 h before inoculation, evaluated 4 to 5 days after inoculation, read-out: efficacy
Protocol: (§2) The active ingredients were made soluble and homogenized in a mixture of Dimethyl sulfoxide/Acetone//Tween® 80 and then diluted in water to the desired concentration. The young plants of gherkin or cabbage were treated by spraying the active ingredient prepared as described above. Control plants were treated only with an aqueous solution of Acetone/Dimethyl sulfoxide/Tween® 80. After 24 hours, the plants were contaminated by spraying the leaves with an aqueous suspension of Botrytis cinerea spores.

Pyricularia oryzae = experiment: microbe, parasite or virus in culture; type: cell-based; conditions: 120 h, read-out: efficacy (inhibition of fungal growth), 50 μMol/l of active ingredient, liquid culture, 5 days incubation
[4] = Measurement of Log P values by HPLC on reversed phase columns (EEC directive 79/831 Annex V.A8); type: physicochemical; conditions: Table 1, compounds of formula (I); method [a]: LC-UV, acidic range, 0.1% formic acid in water and acetonitrile
Alternaria brassicae = experiment: In vivo preventive test on Alternaria brassicae (leaf spot on radish or cabbage); conditions: 500 ppm of active ingredient, sprayed on young radish or cabbage plants 24 h before inoculation, evaluated 3 to 4 days after inoculation, read-out: efficacy
Protocol: as §2, with “B-1. […] The active” for “The active”, “plants of radish or cabbage” for “plants of gherkin or cabbage”, “suspension of Alternaria brassicae spores.” for “suspension of Botrytis cinerea spores.”

Pyrenophora teres = Pyrenophora teres in vitro cell test; type: cell-based; conditions: 144 h, 50 μMol/l of active ingredient, liquid culture, 6 days incubation, read-out: efficacy (inhibition of fungal growth)
Protocol: as §1, with “B-8. Pyrenophora teres In” for “B-5. Alternaria alternata In”, “Inoculum: spore” for “Inoculum: spores”, “of P. teres” for “of A. alternata”, “After 6” for “After 5”

[5] = system: Colletotrichum lindemuthianum; experiment: In vivo preventive test on Colletotrichum lindemuthianum (leaf spot on bean); conditions: 168 h, 500 ppm of active ingredient, sprayed on young bean plants 24 h before inoculation, evaluated 7 days after inoculation, read-out: efficacy
Protocol: as §2, with “B-4. […] The active” for “The active”, “plants of bean were treated” for “plants of gherkin or cabbage were treated”, “suspension of Colletotrichum lindemuthianum spores.” for “suspension of Botrytis cinerea spores.”

SMILES	inhibition at 50 µM (Fusarium culmorum) [%]	inhibition at 50 µM (Botrytis cinerea [1]) [%]	inhibition at 50 µM [2] [%]	inhibition at 50 µM (Alternaria alternata) [%]	pest or weed control at 500 ppm (Botrytis cinerea [3]) [%]	inhibition at 50 µM (Pyricularia oryzae) [%]	chromatographic logP [4]	pest or weed control at 500 ppm (Alternaria brassicae) [%]	inhibition at 50 µM (Pyrenophora teres) [%]	pest or weed control at 500 ppm [5] [%]	inhibition at 20 ppm [2] [%]
Cc1ccc([C@H]2CON=C(c3c(Sc4ccccc4)nnc4ccccc34)N2)s1 (racemic) [Compound I-097]	80 to 89	90 to 100	90 to 100	80 to 89	90 to 100	80 to 89	3.14	80 to 89	90 to 100		
Cc1ccc(C[C@@H]2CON=C(c3cc(Cl)nnc3Sc3ccc(C(F)(F)F)cc3)N2)c(C)c1 (racemic) [Compound I-027]							5.31	90 to 100		90 to 100	
Cc1ccc([C@H]2CON=C(c3c(Sc4cccc(Cl)c4Cl)nnc4ccccc34)N2)s1 (racemic) [Compound I-131]		90 to 100	90 to 100	90 to 100	90 to 100	80 to 89	3.8	90 to 100	90 to 100		
Cc1cc([C@H]2CON=C(c3c(Sc4cccc(F)c4)nnc(C)c3C)N2)c(C)s1 (racemic) [Compound I-050]	90 to 100	90 to 100	90 to 100	90 to 100	90 to 100	90 to 100	3.16	90 to 100	90 to 100		
Cc1ccc([C@H]2CON=C(c3c(Sc4ccccc4Cl)nnc4ccccc34)N2)s1 (racemic) [Compound I-067]		90 to 100	80 to 89	90 to 100	90 to 100	70 to 79	3.4	90 to 100	90 to 100		
Cc1ccc(C[C@H]2CON=C(c3nc(C)ncc3Sc3cccc(OC(F)(F)F)c3)N2)c(Cl)c1 (racemic) [Compound I-021]							5.46			70 to 79	70 to 79
COc1cccc(Sc2nnc3ccccc3c2C2=NOC[C@H](c3ccc(C)s3)N2)c1 (racemic) [Compound I-090]	90 to 100	90 to 100	90 to 100		90 to 100		3.21		80 to 89	80 to 89	
Cc1ccc(C[C@H]2CON=C(c3nc(C)ncc3Sc3cccc(OC(F)(F)F)c3)N2)c(C)c1 (racemic) [Compound I-026]							5.39			80 to 89	70 to 79
Cc1ccc([C@H]2CON=C(c3c(Sc4ccccc4C)nnc4ccccc34)N2)s1 (racemic) [Compound I-110]		90 to 100			90 to 100		3.45	90 to 100		70 to 79	
Cc1cc([C@H]2CON=C(c3c(Sc4ccc(F)c(F)c4)nnc(C)c3C)N2)c(C)s1 (racemic) [Compound I-091]	90 to 100	90 to 100	90 to 100	80 to 89	90 to 100	80 to 89	3.33	80 to 89	90 to 100		
FC(F)(F)c1ccc(Sc2nnc(Cl)cc2C2=NOC[C@@H](Cc3ccc(Cl)cc3Cl)N2)cc1 (racemic) [Compound I-003]					90 to 100		4.93			70 to 79	
Cc1cc([C@@H]2CON=C(c3c(Sc4cccc(Cl)c4F)nnc(C)c3C)N2)c(C)s1 (racemic) [Compound I-071]	90 to 100	90 to 100	90 to 100	90 to 100		90 to 100	3.58		90 to 100		
Cc1cccc(Sc2nnc(C)c(C)c2C2=NOCC(c3ccc(C)s3)N2)c1 (racemic) [Compound I-095, (5RS)-3-[5,6-dimethyl-3-(m-tolylsulfanyl)pyridazin-4-yl]-5-(5-methyl-2-thienyl)-5,6-dihydro-4H-1,2,4-oxadiazine]	70 to 79	90 to 100	90 to 100		90 to 100	70 to 79	2.99	90 to 100		70 to 79	
Cc1ccc(C2CON=C(c3c(Sc4cccc(Cl)c4)nnc(C)c3C)N2)s1 (racemic) [Compound I-104]	90 to 100	90 to 100	90 to 100	90 to 100		90 to 100	3.14		90 to 100		
Cc1ccc([C@H]2CON=C(c3c(Sc4cccc(F)c4)nnc(C)c3C)N2)s1 (racemic) [Compound I-125]	90 to 100	90 to 100	90 to 100	70 to 79		80 to 89	2.83		80 to 89		
Cc1cc([C@H]2CON=C(c3c(Sc4ccccc4Cl)nnc(C)c3C)N2)c(C)s1 (racemic) [Compound I-059]		90 to 100		80 to 89	90 to 100		3.31	90 to 100	90 to 100		
Cc1ccc(C2CON=C(c3c(Sc4cccc(Cl)c4F)nnc(C)c3C)N2)s1 (racemic) [Compound I-103]	80 to 89	90 to 100	90 to 100	90 to 100		90 to 100	3.21		90 to 100		
